In patent US6458781B1, “Substituted diarylalkyl amides as calcium channel antagonists” (priority 1998, dated 2002):
Structures can show the parent of a compound that is named as a salt.

Experiments:
[1] = target: T1, N-type calcium channels in IMR-32 cells (Homo sapiens, UniProt Q00975); assay: N-type Ca2+ channel blocking potency in IMR-32 cells using Indo-1; format: cell-based; details: for inhibition at 1 µM / inhibition at 10 µM: IMR-32, IMR-32 cells; for inhibition at 1 µM: read-out: IMR32 % blockage at 1 μM; for inhibition at 10 µM: read-out: IMR32 % blockage at 10 μM; for IC50: IMR-32 cells, estimated from two data points, read-out: IMR32 IC50 (estimated IC50 values based on two data points)
T1 construct: host or cells: IMR-32 cells differentiated with dibutyryl cAMP and bromodeoxyuridine
T1 sequence (Q00975 whole entry): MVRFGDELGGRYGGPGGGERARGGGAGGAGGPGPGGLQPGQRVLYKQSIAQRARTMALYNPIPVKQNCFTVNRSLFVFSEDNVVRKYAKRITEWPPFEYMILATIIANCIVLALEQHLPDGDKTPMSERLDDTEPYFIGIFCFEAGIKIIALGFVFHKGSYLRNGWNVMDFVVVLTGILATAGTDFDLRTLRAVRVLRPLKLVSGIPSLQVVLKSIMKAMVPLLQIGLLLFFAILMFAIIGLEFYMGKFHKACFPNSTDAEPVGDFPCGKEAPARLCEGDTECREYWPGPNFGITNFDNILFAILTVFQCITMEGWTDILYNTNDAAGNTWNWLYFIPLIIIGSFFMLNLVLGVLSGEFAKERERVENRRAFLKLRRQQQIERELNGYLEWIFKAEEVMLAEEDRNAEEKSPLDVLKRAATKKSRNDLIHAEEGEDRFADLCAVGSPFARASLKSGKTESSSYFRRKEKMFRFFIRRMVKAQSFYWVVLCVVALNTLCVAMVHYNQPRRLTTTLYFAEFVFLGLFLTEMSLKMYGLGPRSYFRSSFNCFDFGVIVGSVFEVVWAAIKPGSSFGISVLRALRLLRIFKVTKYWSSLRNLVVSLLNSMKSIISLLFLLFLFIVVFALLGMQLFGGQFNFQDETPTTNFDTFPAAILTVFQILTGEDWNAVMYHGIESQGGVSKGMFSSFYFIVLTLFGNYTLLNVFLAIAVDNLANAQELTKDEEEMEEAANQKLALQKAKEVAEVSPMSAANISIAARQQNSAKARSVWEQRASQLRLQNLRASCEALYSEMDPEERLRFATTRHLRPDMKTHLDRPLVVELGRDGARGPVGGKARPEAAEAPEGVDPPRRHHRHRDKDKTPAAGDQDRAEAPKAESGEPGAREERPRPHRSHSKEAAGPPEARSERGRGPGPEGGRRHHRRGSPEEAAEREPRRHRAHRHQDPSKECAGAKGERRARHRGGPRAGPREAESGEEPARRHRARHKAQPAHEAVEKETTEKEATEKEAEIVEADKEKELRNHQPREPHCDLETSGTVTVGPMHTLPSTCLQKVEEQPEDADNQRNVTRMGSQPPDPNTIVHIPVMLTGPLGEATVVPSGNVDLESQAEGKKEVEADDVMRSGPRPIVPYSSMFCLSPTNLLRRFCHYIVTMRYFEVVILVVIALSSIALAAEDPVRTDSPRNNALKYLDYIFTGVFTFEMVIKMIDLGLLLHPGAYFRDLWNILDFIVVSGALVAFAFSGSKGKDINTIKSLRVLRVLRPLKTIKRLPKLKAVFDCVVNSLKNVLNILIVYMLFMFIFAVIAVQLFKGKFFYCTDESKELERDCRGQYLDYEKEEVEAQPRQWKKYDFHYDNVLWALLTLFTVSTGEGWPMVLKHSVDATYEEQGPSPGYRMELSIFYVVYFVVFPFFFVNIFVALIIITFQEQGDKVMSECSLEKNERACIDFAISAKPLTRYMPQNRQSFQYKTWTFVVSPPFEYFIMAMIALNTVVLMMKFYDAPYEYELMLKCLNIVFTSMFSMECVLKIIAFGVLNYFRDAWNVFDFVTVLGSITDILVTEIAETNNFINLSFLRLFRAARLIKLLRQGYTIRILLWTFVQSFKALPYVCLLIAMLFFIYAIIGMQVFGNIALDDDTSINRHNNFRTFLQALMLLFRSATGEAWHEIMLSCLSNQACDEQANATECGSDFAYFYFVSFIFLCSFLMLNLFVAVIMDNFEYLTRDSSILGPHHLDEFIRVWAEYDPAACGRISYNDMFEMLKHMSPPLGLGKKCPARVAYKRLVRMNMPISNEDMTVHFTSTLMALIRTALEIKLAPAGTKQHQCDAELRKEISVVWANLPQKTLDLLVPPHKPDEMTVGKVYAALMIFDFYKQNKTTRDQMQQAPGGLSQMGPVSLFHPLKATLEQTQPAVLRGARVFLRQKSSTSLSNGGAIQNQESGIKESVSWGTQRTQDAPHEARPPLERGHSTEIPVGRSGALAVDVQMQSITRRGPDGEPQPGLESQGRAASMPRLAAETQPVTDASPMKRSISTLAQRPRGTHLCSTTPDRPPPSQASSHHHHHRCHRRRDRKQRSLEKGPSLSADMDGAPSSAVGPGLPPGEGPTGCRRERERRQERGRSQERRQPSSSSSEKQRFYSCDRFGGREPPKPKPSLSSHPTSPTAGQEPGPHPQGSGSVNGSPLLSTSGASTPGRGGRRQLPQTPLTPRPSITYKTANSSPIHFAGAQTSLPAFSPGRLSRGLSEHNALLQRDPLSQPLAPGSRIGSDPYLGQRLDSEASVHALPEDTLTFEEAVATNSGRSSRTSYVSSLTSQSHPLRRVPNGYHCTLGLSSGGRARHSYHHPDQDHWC
T1 sequence (P54289 25-956 partner limits assumed): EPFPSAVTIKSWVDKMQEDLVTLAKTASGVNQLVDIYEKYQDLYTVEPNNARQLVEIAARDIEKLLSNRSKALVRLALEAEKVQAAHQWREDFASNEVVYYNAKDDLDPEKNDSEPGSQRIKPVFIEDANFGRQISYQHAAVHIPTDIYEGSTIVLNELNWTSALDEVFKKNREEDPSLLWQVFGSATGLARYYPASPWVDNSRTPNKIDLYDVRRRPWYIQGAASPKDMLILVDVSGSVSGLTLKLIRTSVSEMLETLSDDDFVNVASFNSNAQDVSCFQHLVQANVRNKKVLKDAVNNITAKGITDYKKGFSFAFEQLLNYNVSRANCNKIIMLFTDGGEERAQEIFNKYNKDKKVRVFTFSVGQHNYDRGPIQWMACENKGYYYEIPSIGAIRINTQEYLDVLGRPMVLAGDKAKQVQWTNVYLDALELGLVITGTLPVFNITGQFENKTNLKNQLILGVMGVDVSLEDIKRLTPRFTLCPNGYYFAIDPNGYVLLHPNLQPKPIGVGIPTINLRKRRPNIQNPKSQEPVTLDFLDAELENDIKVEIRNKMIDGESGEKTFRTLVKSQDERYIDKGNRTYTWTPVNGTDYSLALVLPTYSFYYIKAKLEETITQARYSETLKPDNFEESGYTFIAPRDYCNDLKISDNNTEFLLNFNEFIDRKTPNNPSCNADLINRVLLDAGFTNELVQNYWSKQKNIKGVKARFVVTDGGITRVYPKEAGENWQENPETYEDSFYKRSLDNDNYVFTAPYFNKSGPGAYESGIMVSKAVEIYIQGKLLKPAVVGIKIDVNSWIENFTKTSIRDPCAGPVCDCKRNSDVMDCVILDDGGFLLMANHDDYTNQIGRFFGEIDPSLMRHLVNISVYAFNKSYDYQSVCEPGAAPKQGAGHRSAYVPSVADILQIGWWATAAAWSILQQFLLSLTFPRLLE
T1 sequence (P54289 957-1103 partner limits assumed): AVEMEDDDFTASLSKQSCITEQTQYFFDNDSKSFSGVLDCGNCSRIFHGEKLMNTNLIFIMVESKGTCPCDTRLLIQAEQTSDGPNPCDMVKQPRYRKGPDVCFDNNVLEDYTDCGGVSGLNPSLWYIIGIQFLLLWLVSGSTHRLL
T1 sequence (Q02641 whole entry partner): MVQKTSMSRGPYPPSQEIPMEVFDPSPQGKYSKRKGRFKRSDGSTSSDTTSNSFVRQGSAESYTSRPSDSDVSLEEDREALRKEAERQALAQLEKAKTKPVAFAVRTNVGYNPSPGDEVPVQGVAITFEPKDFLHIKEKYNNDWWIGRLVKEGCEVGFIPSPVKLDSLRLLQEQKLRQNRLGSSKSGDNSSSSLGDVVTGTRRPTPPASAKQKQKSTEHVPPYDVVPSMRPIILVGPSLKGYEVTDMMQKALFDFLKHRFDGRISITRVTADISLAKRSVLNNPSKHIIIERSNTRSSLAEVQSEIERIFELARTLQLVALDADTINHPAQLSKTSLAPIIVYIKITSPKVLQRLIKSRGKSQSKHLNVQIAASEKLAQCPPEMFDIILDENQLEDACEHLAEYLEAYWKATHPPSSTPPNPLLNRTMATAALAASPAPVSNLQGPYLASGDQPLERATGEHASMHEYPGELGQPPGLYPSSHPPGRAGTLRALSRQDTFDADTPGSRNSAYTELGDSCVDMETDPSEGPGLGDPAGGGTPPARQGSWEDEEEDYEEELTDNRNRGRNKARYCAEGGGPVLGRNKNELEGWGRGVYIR
Description: Measurement of N-type Ca^2+ Channel Blocking Potencies of Compounds in IMR-32 Cells Using the Fluorescent Ca^2+ Indicator Indo-1
IMR-32 cells are a human tumoral cell line of neural origin. […] Calcium flux into these cells may be induced by stimulation with elevated potassium concentrations. The L-channel component of calcium flux may be blocked by adding 5 μM nitrendipine. The remaining component of calcium entry into the IMR-32 cells is due to calcium flux through N-type calcium channels. Intracellular calcium concentrations are measured using the fluorescent calcium indicator Indo-1. The effect of drug concentration on calcium uptake is studied.
The IMR-32 cell line was obtained from the American Type Culture Collection (Rockville, Md.). Cells were grown in Eagle's Minimum Essential Medium with Earle's salts supplemented with 10% fetal bovine serum, 2 mM L-Gln and antibiotic/antimycotic mixture (Gibco). At approximately 80% confluency, differentiation was induced by the addition of 1 mM dibutyryl cAMP and 2.5 μM bromodeoxyuridine to the medium. After 7 to 13 days of differentiation, cells were detached using 0.5 mM EDTA and loaded with 5 μM Indo-1 acetoxymethyl ester (Molecular Probes, Eugene, Oreg.) at 30° C. for 45 minutes. Loaded cells were washed twice, resuspended (˜10^7 cells/mL) in assay buffer (10 mM HEPES/Tris pH 7.4 in Hank's Balanced Salt Solution without bicarbonate or phenol red containing 0.5% bovine serum albumin) and kept on ice until use. Fluorescence measurements were carried out in a Photon Technology International (PTI, South Brunswick, N.J.) Model RF-F3004 spectrofluorometer with dual emission monochromators using excitation at 350 nm and emission at 400 and 490 nm. The instrument was equipped with a thermostated cuvette holder with stirring capabilities as well as with a computer-controlled pump which allowed for reagent addition during measurement. Instrument control and data collection was done by PTI's OSCAR software running on an IBM compatible computer. Different concentrations of the test compounds (60 μL in dimethyl sulfoxide) were added to 5.94 mL of assay buffer containing approximately 3×10^6 loaded cells, and 5 μM Nitrendipine (in 30 μL EtOH) to block L-type Ca^2+ channels. Samples were incubated for 10 minutes at 30° C. and the aliquot into three 10×10 mm disposable acrylic cuvettes. Emission signals at 400 and 490 nm were acquired from each cuvette at 30° C. for 50 seconds. At 20 seconds after the start of reading, cells were depolarized by the addition of 160 μL of stimulation solution (1 M KCl, 68 mM CaCl2) to the cuvette via the computer-controlled pump. Ratio of dual emission signals (400/490 nm), which is proportional to intracellular Ca^2+ concentration, was plotted against time, and the difference between maximal response after stimulation and basal value (before stimulation) was determined. Values obtained in this way were plotted as a function of drug concentration. IC50 values of test compounds were calculated by fitting a four-parameter logistic function to the data using the least squares method.

[2] = target: T2, L-type calcium channels in A10 cells (Rattus norvegicus, UniProt P22002); assay: L-type Ca2+ channel blocking potency in A10 cells (FLIPR); format: cell-based; details: read-out: FLPA10 IC50
T2 construct: which endogenously expresses L-type calcium channels; host or cells: A10 rat embryonic thoracic aorta smooth muscle cells
Description: Measurement of L-type Ca^2+ Channel Blocking Potencies of Compounds in A10 Cells
Calcium flux through voltage-sensitive calcium channels was assessed by time-resolved monitoring of the fluorescence of pre-loaded calcium-sensitive dyes using FLIPR, a fluorescent image plate reader (Molecular Devices Co.). The A10 smooth muscle cell line derived from embryonic thoracic aorta of the DBIX rat (ATCC, CRL-1476) which endogenously expresses L-type calcium channels. The growth media for A10 cells was Ham's F12/DME high glucose (Irvine Scientific, 9052), supplemented with 20% fetal bovine serum (HyClone Labs, A-1115-L), and 1% each of L-glutamine and antibiotic-antimycotic (same source as above).
Cells were grown to confluency and replated on black-sided 96-well plates (Costar, 3603) for use in FLIPR. Two days after replating, growth media was removed and cells were loaded at 37° C. with 100 μL media containing 1 μM Oregon Green 488 Bapta-1 dye (Molecular Probes, O-6807) for 1 to 3 hours. The dye-containing media was then washed away with buffer (composition in mM: 1.25 CaCl2, 1.2 MgSO4, 11 glucose, 10 HEPES, 3.0 KCl, 137.0 NaCl, pH 7.4 with Tris base) in a Denley Cellwash (Labsystems, CW018B). The residual buffer volume was adjusted to 50 μL. A 5 minute drug-pre-incubation period at 35° C. was initiated when 50 μL of drug-containing buffer was pipetted into the cell plate with the 96-well pipettor integrated in the FLIPR apparatus. Fluorescent counts were monitored at 20 second intervals for 360 seconds, beginning 60 seconds prior to the delivery of drug-containing buffer. Following drug addition, 100 μL aliquots of a high K^+, depolarizing stimulus (composition in mM: 1.25 CaCl2, 1.2 MgSO4, 11 glucose, 10 HEPES, 140.0 KCl, pH 7.4 with Tris base) were added to each well, and fluorescence was monitored at 1 second intervals for 120 seconds beginning 10 seconds prior to the stimulus addition. CCD camera exposure time was 0.4 seconds, laser excitation was at 488 nm with a power of 0.2-0.5W, and a 510 to 560 nm bandpass interference filter preceded the camera.
Data was analyzed as a summation of fluorescent counts above basal during the stimulation period (an approximation of area under the curve), after normalizing the data with a spatial uniformity correction (for variations in laser illumination and cell density) and a negative control correction (zero calcium increase defined as the fluorescence reading in the presence of saturating pharmacologic block of the respective calcium channel). Drug effects were expressed as percent inhibition of fluorescence from an average of 8 K^+-stimulated wells which were pre-treated in the drug incubation period with buffer only. In the A10 cells, the pharmacologic agent used to define zero calcium influx was nitrendipine (RBI, N-144) at a final concentration of 1.0×10^−6 M.

Row | Compound | inhibition at 1 µM [1] [%] | inhibition at 10 µM [1] [%] | IC50 [2] [nM] | IC50 [1] [nM]
1 | CC(C)C[C@@H](C(=O)NCCCC(c1ccc(F)cc1)c1ccc(F)cc1)N(C)C [Example 20, (S)-2-Dimethylamino-4-methyl-pentanoic acid [4,4-bis-(4-fluoro-phenyl)-butyl]-amide monohydrochloride] | 25 | 92 | 470 | 
2 | CC(C)C[C@@H](CN1CCN(C(c2ccc(F)cc2)c2ccc(F)cc2)CC1)NC(=O)OC(C)(C)C [Example 35, (S)-(1-{4-[Bis-(4-fluoro-phenyl)-methyl]-piperazin-1-ylmethyl}-3-methyl-butyl)-carbamic acid tert-butyl ester] |  |  | 360 | 500
3 | CC(C)[C@@H](C(=O)NCCCC(c1ccc(F)cc1)c1ccc(F)cc1)N(C)C1CCCCC1 [Example 69, (S)-N-[4,4-Bis-(4-fluoro-phenyl)-butyl]-2-(cyclohexyl-methyl-amino)-3-methyl-butyramide] | 34 | 99 | 400 | 
4 | CC(C)C[C@H](NC(C)C)C(=O)N1CCN(C(c2ccc(F)cc2)c2ccc(F)cc2)CC1 [Example 49, (S)-1-{4-[Bis-(4-fluoro-phenyl)-methyl]-piperazin-1-yl}-2-isopropylamino-4-methyl-pentan-1-one monohydrochloride] |  |  | 1000 | 3200
5 | CC(C)C[C@@H](C(=O)NCCCC(c1ccc(F)cc1)c1ccc(F)cc1)N(C)C1CCOCC1 [Example 27, (S)-4-Methyl-2-[methyl-(tetrahydro-pyran-4-yl)-amino]-pentanoic acid [4,4-bis-(4-fluoro-phenyl)-butyl]-amide monohydrochloride] |  |  | 450 | 1200
6 | CC(C)C[C@H](NC(C)C)C(=O)NCCCC(c1ccc(F)cc1)c1ccc(F)cc1 [Example 19, (S)-2-Isopropylamino-4-methyl-pentanoic acid [4,4-bis-(4-fluoro-phenyl)-butyl]-amide monohydrochloride] |  |  | 660 | 1100
7 | CC(C)C[C@@H](C(=O)NCCCC(c1ccc(F)cc1)c1ccc(F)cc1)N(C)C(C)C [Example 68, (S)-2-(Isopropyl-methyl-amino)-4-methyl-pentanoic acid [4,4-bis-(4-fluoro-phenyl)-butyl]-amide] |  | 97 | 530 | 
8 | CC(C)C[C@@H](NC(=O)N1CCCCCC1)C(=O)NCCCC(c1ccc(F)cc1)c1ccc(F)cc1 [Example 2, (R)-Azepane-1-carboxylic acid {1-[4,4-bis-(4-fluoro-phenyl)-butylcarbamoyl]-3-methyl-butyl}-amide] |  |  | 290 | 
9 | CC(C)C[C@@H](C(=O)NCCCC(c1ccc(F)cc1)c1ccc(F)cc1)N(C)C1CCCCC1 [Example 21, (S)-2-(Cyclohexyl-methyl-amino)-4-methyl-pentanoic acid [4,4-bis-(4-fluoro-phenyl)-butyl]-amide monohydrochloride] | 71 | 94 | 270 | 
10 | CC(C)C[C@H](NCc1ccccc1)C(=O)N1CCN(C(c2ccc(F)cc2)c2ccc(F)cc2)CC1 [Example 62, (S)-2-Benzylamino-1-{4-[bis-(4-fluoro-phenyl)-methyl]-piperazin-1-yl}-4-methyl-pentan-1-one] |  | 99 | 420 | 
11 | CC(C)C[C@@H](NC(=O)N1CCCCCC1)C(=O)N1CCN(C(c2ccc(F)cc2)c2ccc(F)cc2)CC1 [Example 34, (R)-Azepane-1-carboxylic acid {1-(4-[bis-(4-fluoro-phenyl)-methyl]-piperazine-1-carbonyl}-3-methyl-butyl)-amide] |  |  | 630 | 1890
12 | CC(C)C[C@H](NC1CCOCC1)C(=O)NCCCC(c1ccc(F)cc1)c1ccc(F)cc1 [Example 18, (S)-4-Methyl-2-(tetrahydro-pyran-4-ylamino)-pentanoic acid [4,4-bis-(4-fluoro-phenyl)-butyl]-amide] |  |  | 570 | 2000
13 | CC(C)C[C@@H](C(=O)NCCC(c1ccccc1)c1ccccc1)N(C)C1CCCCC1 [Example 25, (S)-2-(Cyclohexyl-methyl-amino)-4-methyl-pentanoic acid (3,3-diphenyl-propyl)-amide monohydrochloride] |  |  | 800 | 990
14 | CC(C)N[C@H](C(=O)NCCCC(c1ccc(F)cc1)c1ccc(F)cc1)C(C)C [Example 65, (S)-N-[4,4-Bis-(4-fluoro-phenyl)-butyl]-2-isopropylamino-3-methyl-butyramide] |  | 83 | 680 | 
15 | CC(C)C[C@@H](C(=O)NCCCC(c1ccc(F)cc1)c1ccc(F)cc1)N1CCOCC1 [Example 23, (S)-4-Methyl-2-morpholin-4-yl-pentanoic acid [4,4-bis-(4-fluoro-phenyl)-butyl]-amide monohydrochloride] | 35 | 89 | 130 | 
16 | CCC(C)N[C@H](C(=O)NCCCC(c1ccc(F)cc1)c1ccc(F)cc1)C(C)C (stereo partly drawn) [Example 66, (S)-N-[4,4-Bis-(4-fluoro-phenyl)-butyl]-2-sec-butylamino-3-methyl-butyramide] | 34 | 94 | 510 | 
17 | CC(C)C[C@@H](C(=O)N1CCN(C(c2ccc(F)cc2)c2ccc(F)cc2)CC1)N1CCCCC1 [Example 37, (S)-1-{4-[Bis-(4-fluoro-phenyl)-methyl]-piperazin-1-yl}-4-methyl-2-piperidin-1-yl-pentan-1-one] |  |  | 1400 | 2000
18 | CC(C)C[C@H](NC1CCOCC1)C(=O)N1CCN(C(c2ccc(F)cc2)c2ccc(F)cc2)CC1 [Example 63, (S)-1-{4-[Bis-(4-fluoro-phenyl)-methyl]-piperazin-1-yl}-4-methyl-2-(tetrahydro-pyran-4-ylamino)-pentan-1-one] |  |  | 1100 | 
